Results taken from US10632179B2, “Methods and compositions for treating cancer” (Case Western Reserve University, priority 2013, dated 2020).

System: heterotopic GBM flank tumor model
Experiment: Heterotopic xenograft flank tumor treatment with peptide
Format: in vivo, nude mice
Set-up: dose or concentration left out as unconfirmed
Conditions: flank tumors of mice intravenously administered peptide; compared with scrambled control polypeptide; FIG. 2
Protocol: In this Example, we tested the efficacy of the SBK2 peptide in treating primary human brain tumor xenografts. The studies were performed using an imaging dose of the SBK2 peptide probe in 3 sequential injections that were two days apart in a heterotopic GBM flank tumor model.
Human Gli36Δ5 glioblastoma cells constitutively over-express the vIII mutant forms of the EGFR gene (Tyminski E, Leroy S, Terada K, Finkelstein D M, Hyatt J L, Danks M K, Potter P M, Saeki Y, Chiocca E A (2005) Brain tumor oncolysis with replication-conditional herpes simplex virus type 1 expressing the prodrug-activating genes, CYP2B1 and secreted human intestinal carboxylesterase, in combination with cyclophosphamide and irinotecan. Cancer Res 65:6850-6857). Human LN-229 glioblastoma cells were obtained from American Type Culture Collection, Manassas, Va. Gli36Δ5 or LN-229 cells were harvested for flank implantation by trypsinization. […]
On each peptide treatment day, flank tumors were imaged using the Maestro FLEX In Vivo Imaging System. […] Tumors were measured through the skin using calipers; length, width and height of the tumors were recorded on each treatment day. On the day the animals were sacrificed, tumors were measured before removal (through the skin) and after removal.

GEGDDFNWEQVNTLTKPTSD [SBK2]
reduction in tumor volume: 50% | reduction in weight (flank tumor): 35%
